US10899739B2, “Macrophage migration inhibitory factor inhibitors, and methods of making and using same” (YALE UNIVERSITY, priority 2017, dated 2021)
Values after ≈ are worked out from the molar mass of the structure shown. Values joined by “and” are separate entries in the source; they are usually repeats but may differ in a detail not shown here. Identical values can stand only once. Like-named read-outs stand apart in the source and are kept apart here. One block for each molecule: values may come before it.

Columns and labels:
[1] = shake-flask; data for previously reported analogs of 1 and 2; cited from earlier work
[2] = aqueous solubility, shake-flask procedure; type: physicochemical; conditions: aqueous buffer, thermodynamic from solid, Britton-Robinson buffer pH 6.5, read-out: Aqueous Solubility S
Protocol: For the assaying, inhibition constants Ki were determined as before using 4-hydroxyphenylpyruvic acid (HPP) as the substrate (Cisneros, et al., 2016, Bioorg. Med. Chem. Lett. 26:2764-2767). Inhibitory activity is monitored by measuring formation of the borate complex of the enol product at 305 nm using a Tecan Infinite F500 plate reader. Binding constants Kd were also obtained for the new compounds using a fluorescence polarization assay (Cisneros, et al., 2016, J. Am. Chem. Soc. 138:8630-8638). […] Saturated solutions in Britton-Robinson buffer (pH 6.5) are filtered (Acrodisc syringe, 0.2 μm pore) and analyzed by UV-vis spectroscopy (Agilent 8453).

[3] = target: T1, MIF (Homo sapiens, UniProt P14174); assay: fluorescence polarization binding assay
T1 construct: made in house
T1 sequence (P14174 2-115 limits assumed): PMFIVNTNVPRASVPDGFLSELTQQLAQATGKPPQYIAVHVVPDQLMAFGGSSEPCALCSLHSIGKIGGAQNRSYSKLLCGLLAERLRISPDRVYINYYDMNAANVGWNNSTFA

[4] = target: T1, MIF; assay: MIF tautomerase inhibition assay with 4-hydroxyphenylpyruvic acid (HPP) as substrate; type: biochemical

Molecule: OCCOc1ccc2nc(-c3cn(-c4ccc(O)cc4)nn3)ccc2c1 [Compound 1b]
Aqueous Solubility S [1]: 2.6 µg/mL

Molecule: NCCOc1ccc2nc(-c3cn(-c4ccc(O)cc4)nn3)ccc2c1 [Compound 1c]
Aqueous Solubility S [1]: 3.7 µg/mL

Molecule: O=C(O)COc1ccc2nc(-c3cn(-c4ccc(O)cc4)nn3)ccc2c1 [Compound 1f]
Aqueous Solubility S [1]: 365 µg/mL

Molecule: O=C(O)COc1ccc2nc(-c3cn(-c4ccc(O)c(F)c4)nn3)ccc2c1 [Compound 2c]
Aqueous Solubility S [1]: 37.0 µg/mL

solubility [2]: 288 µg/mL (≈ 755 µM)
Molecule: O=C(O)Cn1ccc2ccc(-c3cn(-c4ccc(O)c(F)c4)nn3)nc2c1=O [Compound 4b, 2-(2-(1-(3-fluoro-4-hydroxyphenyl)-1H-1,2,3-triazol-4-yl)-8-oxo-1,7-naphthyridin-7(8H)-yl)acetic acid]

Kd ([3]; fluorescence polarization, new compounds and ISO-1, read-out: Binding Constants Kd): 23 µM and 23.1 µM
Kd ([3]; spread of four measurements, read-out: Kd, results of repeated measurements): 20 to 30 µM
Ki ([4]; HPP substrate, new naphthyridinones and ISO-1, read-out: Experimental Inhibition Constants Ki): 30 µM and 30.1 µM
Ki ([4]; spread of nine measurements, read-out: Ki, results of repeated measurements): 21 to 39 µM
Molecule: methyl 3-(4-hydroxyphenyl)-4,5-dihydroisoxazole-5-carboxylate [ISO-1]
